Source: ChEMBL document CHEMBL3232845 (Bioorg Med Chem Lett, 2014)

Legend:
Design in all cases: scale not given: the % may be the effect or the level left
[1] = target: Vascular endothelial growth factor receptor 2 (Homo sapiens) (UniProt P35968); assay: Inhibition of human KDR assessed as enzyme activity at 1 uM relative to control
[2] = target: G protein-coupled receptor kinase 5 (Homo sapiens) (UniProt P34947); assay: Inhibition of human GRK5 assessed as enzyme activity at 1 uM relative to control
[3] = target: Serine/threonine-protein kinase TAO3 (Homo sapiens) (UniProt Q9H2K8); assay: Inhibition of human TAO3 assessed as enzyme activity at 1 uM relative to control
[4] = target: High affinity nerve growth factor receptor (Homo sapiens) (UniProt P04629); assay: Inhibition of human TrkA assessed as enzyme activity at 1 uM relative to control
[5] = target: Discoidin domain-containing receptor 2 (Homo sapiens) (UniProt Q16832); assay: Inhibition of human DDR2 assessed as enzyme activity at 1 uM relative to control
[6] = target: Platelet-derived growth factor receptor alpha (Homo sapiens) (UniProt P16234); assay: Inhibition of human PDGFRalpha assessed as enzyme activity at 1 uM relative to control
[7] = target: Serine/threonine-protein kinase TAO2 (Homo sapiens) (UniProt Q9UL54); assay: Inhibition of human TAO2 assessed as enzyme activity at 1 uM relative to control
[8] = target: Proto-oncogene tyrosine-protein kinase Src (Homo sapiens) (UniProt P12931); assay: Inhibition of human Src assessed as enzyme activity at 1 uM relative to control
[9] = target: cAMP-dependent protein kinase catalytic subunit alpha (Homo sapiens) (UniProt P17612); assay: Inhibition of human PKAC-alpha assessed as enzyme activity at 1 uM relative to control
[10] = target: Tyrosine-protein kinase receptor UFO (Homo sapiens) (UniProt P30530); assay: Inhibition of human Axl assessed as enzyme activity at 1 uM relative to control
[11] = target: MAP kinase-activated protein kinase 2 (Homo sapiens) (UniProt P49137); assay: Inhibition of human MAPKAP-K2 assessed as enzyme activity at 1 uM relative to control
[12] = target: RAC-alpha serine/threonine-protein kinase (Homo sapiens) (UniProt P31749); assay: Inhibition of human AKT1 assessed as enzyme activity at 1 uM relative to control
[13] = target: Serine/threonine-protein kinase Sgk1 (Homo sapiens) (UniProt O00141); assay: Inhibition of human SGK1 assessed as enzyme activity at 1 uM relative to control
[14] = target: Receptor tyrosine-protein kinase erbB-4 (Homo sapiens) (UniProt Q15303); assay: Inhibition of human ErbB4 assessed as enzyme activity at 1 uM relative to control
[15] = target: RAC-beta serine/threonine-protein kinase (Homo sapiens) (UniProt P31751); assay: Inhibition of human AKT2 assessed as enzyme activity at 1 uM relative to control
[16] = target: Homeodomain-interacting protein kinase 2 (Homo sapiens) (UniProt Q9H2X6); assay: Inhibition of human HIPK2 assessed as enzyme activity at 1 uM relative to control
[17] = target: Serine/threonine-protein kinase 10 (Homo sapiens) (UniProt O94804); assay: Inhibition of human LOK assessed as enzyme activity at 1 uM relative to control
[18] = target: Calcium/calmodulin-dependent protein kinase type II subunit delta (Homo sapiens) (UniProt Q13557); assay: Inhibition of human CAMK2d assessed as enzyme activity at 1 uM relative to control
[19] = target: Protein kinase C iota type (Homo sapiens) (UniProt P41743); assay: Inhibition of human PKCiota assessed as enzyme activity at 1 uM relative to control
[20] = target: Insulin-like growth factor 1 receptor (Homo sapiens) (UniProt P08069); assay: Inhibition of human activated IGF-1R assessed as enzyme activity at 1 uM relative to control
[21] = target: Glycogen synthase kinase-3 beta (Homo sapiens) (UniProt P49841); assay: Inhibition of human GSK3beta assessed as enzyme activity at 1 uM relative to control
[22] = target: Tyrosine-protein kinase JAK2 (Homo sapiens) (UniProt O60674); assay: Inhibition of human JAK2 assessed as enzyme activity at 1 uM relative to control
[23] = target: Serine/threonine-protein kinase Nek7 (Homo sapiens) (UniProt Q8TDX7); assay: Inhibition of human NEK7 assessed as enzyme activity at 1 uM relative to control
[24] = target: Angiopoietin-1 receptor (Homo sapiens) (UniProt Q02763); assay: Inhibition of human Tie2 assessed as enzyme activity at 1 uM relative to control
[25] = target: Dual specificity mitogen-activated protein kinase kinase 4 (Mus musculus) (UniProt P47809); assay: Inhibition of mouse MKK4 assessed as enzyme activity at 1 uM relative to control
[26] = target: Tyrosine-protein kinase Blk (Homo sapiens) (UniProt P51451); assay: Inhibition of human BLK assessed as enzyme activity at 1 uM relative to control
[27] = target: Serine/threonine-protein kinase PLK3 (Homo sapiens) (UniProt Q9H4B4); assay: Inhibition of human Plk3 assessed as enzyme activity at 1 uM relative to control
[28] = target: Serine/threonine-protein kinase WNK3 (Homo sapiens) (UniProt Q9BYP7); assay: Inhibition of human WNK3 assessed as enzyme activity at 1 uM relative to control
[29] = target: Tyrosine-protein kinase Mer (Homo sapiens) (UniProt Q12866); assay: Inhibition of human Mer assessed as enzyme activity at 1 uM relative to control
[30] = target: Tyrosine-protein kinase SYK (Homo sapiens) (UniProt P43405); assay: Inhibition of human Syk assessed as enzyme activity at 1 uM relative to control
[31] = target: Platelet-derived growth factor receptor beta (Homo sapiens) (UniProt P09619); assay: Inhibition of human PDGFRbeta assessed as enzyme activity at 1 uM relative to control
[32] = target: Tyrosine-protein kinase ZAP-70 (Homo sapiens) (UniProt P43403); assay: Inhibition of human ZAP-70 assessed as enzyme activity at 1 uM relative to control
[33] = target: Ephrin type-A receptor 1 (Homo sapiens) (UniProt P21709); assay: Inhibition of human EphA1 assessed as enzyme activity at 1 uM relative to control
[34] = target: Protein kinase C beta type (Homo sapiens) (UniProt P05771); assay: Inhibition of human PKCbeta1 assessed as enzyme activity at 1 uM relative to control
[35] = target: Protein-tyrosine kinase 2-beta (Homo sapiens) (UniProt Q14289); assay: Inhibition of human FAK2 assessed as enzyme activity at 1 uM relative to control
[36] = target: Hepatocyte growth factor receptor (Homo sapiens) (UniProt P08581); assay: Inhibition of human Met assessed as enzyme activity at 1 uM relative to control
[37] = target: G protein-coupled receptor kinase 6 (Homo sapiens) (UniProt P43250); assay: Inhibition of human GRK6 assessed as enzyme activity at 1 uM relative to control
[38] = target: Focal adhesion kinase 1 (Homo sapiens) (UniProt Q05397); assay: Inhibition of human FAK assessed as enzyme activity at 1 uM relative to control

Serine/threonine-protein kinase PLK3 (Homo sapiens), sequence (Q9H4B4 whole entry, looked up): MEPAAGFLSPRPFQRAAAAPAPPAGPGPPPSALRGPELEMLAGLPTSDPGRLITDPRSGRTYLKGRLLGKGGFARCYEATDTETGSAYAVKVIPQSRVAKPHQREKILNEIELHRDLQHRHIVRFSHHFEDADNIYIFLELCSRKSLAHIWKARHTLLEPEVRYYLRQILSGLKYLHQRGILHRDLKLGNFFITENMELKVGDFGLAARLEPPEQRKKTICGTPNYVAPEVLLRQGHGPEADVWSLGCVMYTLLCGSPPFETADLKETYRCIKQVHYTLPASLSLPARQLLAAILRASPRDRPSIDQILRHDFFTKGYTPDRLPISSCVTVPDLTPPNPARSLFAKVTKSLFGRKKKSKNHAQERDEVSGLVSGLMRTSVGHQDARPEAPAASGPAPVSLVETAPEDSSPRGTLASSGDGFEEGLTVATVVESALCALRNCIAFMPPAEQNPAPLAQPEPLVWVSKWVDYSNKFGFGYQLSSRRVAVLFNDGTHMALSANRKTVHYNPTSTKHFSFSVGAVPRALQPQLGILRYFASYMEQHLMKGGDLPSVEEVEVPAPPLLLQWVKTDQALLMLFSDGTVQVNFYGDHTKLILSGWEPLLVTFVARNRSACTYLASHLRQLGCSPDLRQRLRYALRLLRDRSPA
Homeodomain-interacting protein kinase 2 (Homo sapiens), sequence (Q9H2X6 whole entry, looked up): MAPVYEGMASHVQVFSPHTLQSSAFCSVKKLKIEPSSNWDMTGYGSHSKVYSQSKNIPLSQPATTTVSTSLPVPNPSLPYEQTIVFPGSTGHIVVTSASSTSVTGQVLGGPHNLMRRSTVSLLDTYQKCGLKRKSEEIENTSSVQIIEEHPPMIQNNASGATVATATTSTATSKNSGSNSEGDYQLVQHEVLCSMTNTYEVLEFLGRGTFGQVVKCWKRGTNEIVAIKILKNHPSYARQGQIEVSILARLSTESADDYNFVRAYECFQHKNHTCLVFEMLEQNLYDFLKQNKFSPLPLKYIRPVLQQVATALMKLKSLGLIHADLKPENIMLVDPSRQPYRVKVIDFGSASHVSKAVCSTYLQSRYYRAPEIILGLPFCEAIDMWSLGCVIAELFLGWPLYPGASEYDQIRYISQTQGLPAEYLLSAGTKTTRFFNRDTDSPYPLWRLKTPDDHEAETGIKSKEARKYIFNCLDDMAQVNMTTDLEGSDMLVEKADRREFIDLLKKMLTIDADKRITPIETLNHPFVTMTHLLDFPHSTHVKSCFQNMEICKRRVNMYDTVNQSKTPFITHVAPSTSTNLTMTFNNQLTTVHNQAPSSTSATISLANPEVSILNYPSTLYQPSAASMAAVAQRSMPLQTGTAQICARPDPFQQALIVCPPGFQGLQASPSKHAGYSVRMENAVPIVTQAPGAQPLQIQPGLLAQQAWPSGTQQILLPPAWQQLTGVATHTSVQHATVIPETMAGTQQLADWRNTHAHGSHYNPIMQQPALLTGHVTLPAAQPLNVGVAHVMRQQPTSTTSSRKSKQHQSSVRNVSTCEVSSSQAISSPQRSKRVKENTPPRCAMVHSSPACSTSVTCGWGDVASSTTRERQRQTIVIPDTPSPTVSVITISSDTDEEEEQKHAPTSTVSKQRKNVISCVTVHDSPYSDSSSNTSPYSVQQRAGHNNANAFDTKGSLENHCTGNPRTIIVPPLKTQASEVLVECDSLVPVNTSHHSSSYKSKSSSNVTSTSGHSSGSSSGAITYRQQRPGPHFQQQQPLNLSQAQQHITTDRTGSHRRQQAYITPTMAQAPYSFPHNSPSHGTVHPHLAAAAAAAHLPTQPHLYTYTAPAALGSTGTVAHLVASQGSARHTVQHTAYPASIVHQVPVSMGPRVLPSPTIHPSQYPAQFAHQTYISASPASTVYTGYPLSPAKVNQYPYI
Discoidin domain-containing receptor 2 (Homo sapiens), sequence (Q16832 whole entry, the tested form may be a part): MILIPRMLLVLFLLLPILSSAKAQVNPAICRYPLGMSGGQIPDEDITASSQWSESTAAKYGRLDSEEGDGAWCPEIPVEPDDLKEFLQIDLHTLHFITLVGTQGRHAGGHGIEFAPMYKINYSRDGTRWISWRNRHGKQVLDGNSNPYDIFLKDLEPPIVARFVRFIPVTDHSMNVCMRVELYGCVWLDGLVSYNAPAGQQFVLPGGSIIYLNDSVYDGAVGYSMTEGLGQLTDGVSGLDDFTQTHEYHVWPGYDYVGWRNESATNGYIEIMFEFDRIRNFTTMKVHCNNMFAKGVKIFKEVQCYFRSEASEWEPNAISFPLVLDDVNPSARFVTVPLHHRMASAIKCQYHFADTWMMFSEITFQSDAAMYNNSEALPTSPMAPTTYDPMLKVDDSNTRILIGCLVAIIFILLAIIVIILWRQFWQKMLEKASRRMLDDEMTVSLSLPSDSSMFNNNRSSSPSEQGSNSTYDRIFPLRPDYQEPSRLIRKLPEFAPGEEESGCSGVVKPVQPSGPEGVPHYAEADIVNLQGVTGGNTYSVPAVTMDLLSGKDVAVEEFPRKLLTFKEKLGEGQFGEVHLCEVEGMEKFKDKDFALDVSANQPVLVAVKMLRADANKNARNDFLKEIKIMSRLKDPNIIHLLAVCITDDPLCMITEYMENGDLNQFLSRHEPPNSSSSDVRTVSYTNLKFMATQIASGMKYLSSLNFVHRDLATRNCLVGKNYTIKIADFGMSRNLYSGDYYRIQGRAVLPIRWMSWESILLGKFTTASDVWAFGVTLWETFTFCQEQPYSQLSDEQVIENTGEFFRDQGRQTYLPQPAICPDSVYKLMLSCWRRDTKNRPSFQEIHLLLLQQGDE
MAP kinase-activated protein kinase 2 (Homo sapiens), sequence (P49137 whole entry, looked up): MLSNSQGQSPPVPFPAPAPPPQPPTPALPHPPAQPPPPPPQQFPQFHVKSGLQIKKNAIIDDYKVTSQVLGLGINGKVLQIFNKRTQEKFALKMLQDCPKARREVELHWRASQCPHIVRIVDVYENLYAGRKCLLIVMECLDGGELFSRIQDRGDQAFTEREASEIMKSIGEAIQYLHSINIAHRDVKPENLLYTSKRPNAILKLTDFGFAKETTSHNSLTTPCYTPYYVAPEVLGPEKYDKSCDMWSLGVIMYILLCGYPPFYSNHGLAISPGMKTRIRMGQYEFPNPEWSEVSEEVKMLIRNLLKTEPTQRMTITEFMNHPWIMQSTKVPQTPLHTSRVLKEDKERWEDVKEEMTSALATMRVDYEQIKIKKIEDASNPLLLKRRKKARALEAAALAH
Ephrin type-A receptor 1 (Homo sapiens), sequence (P21709 whole entry): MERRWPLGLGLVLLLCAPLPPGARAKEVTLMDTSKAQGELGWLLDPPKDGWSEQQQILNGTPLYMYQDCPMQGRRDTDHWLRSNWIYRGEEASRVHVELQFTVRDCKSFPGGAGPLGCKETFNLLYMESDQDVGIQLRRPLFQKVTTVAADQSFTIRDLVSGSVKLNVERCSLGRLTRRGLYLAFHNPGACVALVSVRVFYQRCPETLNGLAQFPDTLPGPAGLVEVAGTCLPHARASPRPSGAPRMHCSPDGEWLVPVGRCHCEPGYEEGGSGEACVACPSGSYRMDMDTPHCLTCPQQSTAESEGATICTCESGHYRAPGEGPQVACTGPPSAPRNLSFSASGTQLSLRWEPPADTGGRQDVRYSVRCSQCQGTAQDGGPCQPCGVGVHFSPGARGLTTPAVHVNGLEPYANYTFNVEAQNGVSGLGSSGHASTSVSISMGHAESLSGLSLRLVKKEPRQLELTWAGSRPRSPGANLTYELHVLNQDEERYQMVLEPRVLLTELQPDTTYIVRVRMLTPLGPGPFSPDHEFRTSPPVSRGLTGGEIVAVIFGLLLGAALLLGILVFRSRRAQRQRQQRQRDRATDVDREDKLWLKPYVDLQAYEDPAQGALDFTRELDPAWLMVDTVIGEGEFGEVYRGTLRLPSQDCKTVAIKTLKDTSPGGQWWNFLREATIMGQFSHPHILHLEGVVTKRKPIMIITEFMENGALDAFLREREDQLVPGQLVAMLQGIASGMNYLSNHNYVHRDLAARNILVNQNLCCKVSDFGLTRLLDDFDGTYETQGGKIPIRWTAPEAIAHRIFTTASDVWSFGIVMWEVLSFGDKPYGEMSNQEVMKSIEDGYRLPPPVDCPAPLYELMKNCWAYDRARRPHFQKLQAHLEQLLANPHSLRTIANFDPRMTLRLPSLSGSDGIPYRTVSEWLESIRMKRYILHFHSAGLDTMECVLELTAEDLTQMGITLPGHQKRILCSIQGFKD
Glycogen synthase kinase-3 beta (Homo sapiens), sequence (P49841 whole entry, looked up): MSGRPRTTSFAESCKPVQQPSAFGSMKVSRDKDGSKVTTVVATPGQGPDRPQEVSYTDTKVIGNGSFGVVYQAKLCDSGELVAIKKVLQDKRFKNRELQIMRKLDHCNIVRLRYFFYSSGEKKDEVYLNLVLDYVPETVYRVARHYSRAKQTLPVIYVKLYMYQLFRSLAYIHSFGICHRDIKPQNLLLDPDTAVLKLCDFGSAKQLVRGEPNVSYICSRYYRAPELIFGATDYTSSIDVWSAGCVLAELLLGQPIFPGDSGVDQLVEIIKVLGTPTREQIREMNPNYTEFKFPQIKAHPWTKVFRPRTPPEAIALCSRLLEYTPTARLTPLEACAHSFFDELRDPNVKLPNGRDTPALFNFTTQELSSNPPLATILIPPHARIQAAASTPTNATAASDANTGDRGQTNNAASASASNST
RAC-alpha serine/threonine-protein kinase (Homo sapiens), sequence (P31749 whole entry): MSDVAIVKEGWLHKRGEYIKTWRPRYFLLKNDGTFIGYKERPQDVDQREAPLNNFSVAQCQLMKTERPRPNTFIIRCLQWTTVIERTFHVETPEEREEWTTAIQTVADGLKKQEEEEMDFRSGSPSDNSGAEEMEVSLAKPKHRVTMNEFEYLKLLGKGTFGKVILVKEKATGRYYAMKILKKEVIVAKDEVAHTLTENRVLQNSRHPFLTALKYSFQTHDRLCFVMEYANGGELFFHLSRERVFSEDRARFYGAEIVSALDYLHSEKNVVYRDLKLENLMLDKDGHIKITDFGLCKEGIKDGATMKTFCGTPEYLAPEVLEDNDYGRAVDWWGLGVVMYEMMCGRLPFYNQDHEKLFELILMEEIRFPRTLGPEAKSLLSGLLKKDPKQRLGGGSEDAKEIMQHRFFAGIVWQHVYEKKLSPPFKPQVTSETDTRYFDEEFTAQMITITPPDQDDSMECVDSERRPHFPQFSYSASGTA

With `CCCS(=O)(=O)Nc1cccc(Nc2ccc3ncn(C)c(=O)c3c2)c1C#N` the Activity [1] was 112%, the Activity [2] was 102% and the Activity [3] was 100%. It also gave an Activity [4] of 103%, an Activity [5] of 100% and an Activity [6] of 102%. The Activity [7] was 97%, the Activity [8] was 83.5% and the Activity [9] was 110%. It also gave an Activity [10] of 93%, an Activity [11] of 97% and an Activity [12] of 108%. The Activity [13] was 121%, the Activity [14] was 106% and the Activity [15] was 154%. The Activity [16] was 100%, the Activity [17] was 40.5% and the Activity [18] was 94.5%. The Activity [19] was 102%, the Activity [20] was 84% and the Activity [21] was 95.5%. For the same molecule, the Activity [22] was 110%, the Activity [23] was 110% and the Activity [24] was 118%. For the same molecule, the Activity [25] was 128%, the Activity [26] was 102% and the Activity [27] was 99.5%. It also gave an Activity [28] of 107%, an Activity [29] of 89.5% and an Activity [30] of 117%. The Activity [31] was 114%, the Activity [32] was 112% and the Activity [33] was 101%. It also gave an Activity [34] of 87%, an Activity [35] of 85.5% and an Activity [36] of 104%. For the same molecule, the Activity [37] was 103% and the Activity [38] was 102%.
